Test results: patent publication US5646283A, “Tetracyclic compound” (Kyowa Hakko Kogyo Co., Ltd., priority 1993, dated 1997)

Legend:
[1] = tested on: spleen cells; experiment: Plaque Forming Cell Assay (inhibition rate of the antibody production); type: cell-based, Balb/c strain mice; conditions: Mus musculus; Concentration 10^-6 M; read-out: Inhibition rate (antibody production, PFC)
Method: Plaque Forming Cell Assay
The plaque forming cell assay was carried out by the following manner with reference to the method of Jerne et al. [Science, 140, 405 (1963)] and the method of Yamamoto et al. [Drugs Experimental Clinical Research, III(1), 5 (1982)].
Male Balb/c strain mice (7-week-old) (Charles River Co.) were sensitized with 1×10^8 sheep erythrocytes (product of Biotest Research Institute) administered via the caudal vein, and the spleens were extirpated 6 or 7 days after the sensitization. The extirpated spleens were immersed in Hanks' solution (Nissui Seiyaku) to make a cell suspension, which was then filtered, followed by centrifugal separation at 1200 rpm for 5 minutes. After centrifugal separation, the supernatant was discarded and the precipitate was treated with Tris.NH4 Cl solution to remove the erythrocytes, and then washed three times with Hanks' solution. After discarding the supernatant, the cells were suspended in an RPMI-1640 medium (Nissui Seiyaku) containing 10% bovine fetal serum (Gibco Co.), 50 μg/ml of streptomycin (Meiji Seika), […] of penicillin (Meiji Seika) and 2-mercaptoethanol (5×10^-5 M). In each well of a micro culture plate (NUNK Co., Ltd., 24 wells) were put 2 ml of the mixture of the cell suspension containing 1×10^7 of spleen cells, 5×10^6 sheep erythrocites and a test compound solution (10^-6 M) obtained by diluting the test compound dissolved in dimethylsulfoxide (10^-2 M) with the above mentioned RPMI-1640, and the cells were cultured at 37° C. for 5 days.
After the completion of the culturing, the cells were subjected to centrifugal separation at 2000 rpm for 5 minutes, and the resulting supernatant was removed. The precipitate was suspended in 1 ml of Hanks' solution, again subjected to centrifugal separation, suspended in 1 ml of Hanks' solution, and then, 50 μl of the suspension and 50 μl of sheep erythrocytes were added to 400 μl of 0.25% agarose/Hanks' solution heated to 50° C. in advance, and the mixture was scattered on a glass slide, placed on a plaque assay plate, and together with guinea pig complement (Cedarlene Institute) diluted 40-fold with a phosphate buffer solution, incubated at 37° C. for 1 to 2 hours. The number of the appearing direct plaque cells (direct PFC count) in suspension was counted.
The inhibition rate of the antibody production of the test compound was determined by the following equation. [formula]
The compound used for comparison was 5,6-dihydro-9-fluoro-3-phenylbenz[c]acridine-7-carboxylic acid [Japanese Published Unexamined Patent Application No. 233661/90, hereinafter referred to as Compound (A)] represented by formula (A). [drawing 62]
PFC count in Control means PFC count in the absence of the test compound (dimethylsulfoxide alone).

[2] = tested on: spleen cells; experiment: as above; type: cell-based, Balb/c strain mice; conditions: Mus musculus, read-out: Inhibition rate (antibody production, PFC); for inhibition at 10 µM: Concentration 10^-5 M; for inhibition at 0.1 µM: Concentration 10^-7 M; for inhibition at 0.01 µM: Concentration 10^-8 M
[3] = tested on: dd mice; experiment: Acute toxicity; type: in vivo; conditions: mortality after 7 days
Method: The test compound was administered to dd mice having a weight of 20 to 25 g per os (p.o.) and intraperitoneally (i.p.). MLD (minimum lethal dose) was evaluated by measuring the mortality after 7 days from the day of administration.

| SMILES | inhibition at 1 µM [1] [%] | inhibition at 10 µM [2] [%] | inhibition at 0.1 µM [2] [%] | inhibition at 0.01 µM [2] [%] | MLD (minimum lethal dose) ([3]; i.p.) | MLD (minimum lethal dose) ([3]; p.o.) |
| --- | --- | --- | --- | --- | --- | --- |
| O=C(O)c1c2c(nc3ccc(F)cc13)-c1ccc(-c3ccccc3)cc1CCC2 [Compound 46, 6,7-Dihydro-10-fluoro-3-phenyl-5H-benzo[6,7]cyclohepta[1,2-b]quinoline-8-carboxylic acid] | 84.8 | 94.9 | 81.4 |  |  |  |
| O=C(O)c1c2c(nc3ccc(F)cc13)-c1ccc(-c3ccc(F)cc3F)cc1CC2 [Compound 2, 3-(2,4-Difluorophenyl)-5,6-dihydro-9-fluorobenz [c]acridine-7-carboxylic acid] | 96.3 | 98 | 86.7 |  |  |  |
| O=C(O)c1c2c(nc3ccc(F)cc13)-c1ccc(-c3ccc(F)cc3)cc1CC2 [Compound 1, 5,6-Dihydro-9-fluoro-3-(4-fluorophenyl)benz[c]acridine-7-carboxylic acid] | 93.5 | 98.1 | 69.2 |  |  |  |
| O=C(O)c1c2c(nc3ccc(F)cc13)-c1cc(F)c(-c3ccccc3F)cc1CC2 [Compound 17, 2,9-Difluoro-5,6-dihydro-3-(2-fluorophenyl)benz[c]acridine-7-carboxylic acid] | 91 |  | 82.5 | 59.8 |  |  |
| O=C(O)c1c2c(nc3ccc(F)cc13)-c1cc(F)c(-c3ccccc3)cc1CCC2 [Compound 28, 2,10-Difluoro-6,7-dihydro-3-phenyl-5H-benzo[6,7]cyclohepta[1,2-b]quinoline-8-carboxylic acid] | 93.6 |  | 90.1 | 73.6 | > 100 | > 100 |
| O=C(O)c1c2c(nc3ccc(F)cc13)-c1cc(F)c(-c3ccccc3)cc1CC2 [Compound 16, 2,9-Difluoro-5,6-dihydro-3-phenylbenz[c]acridine-7-carboxylic acid] | 94.1 |  | 88.5 | 56.8 |  |  |
| O=C(O)c1c2c(nc3ccc(F)cc13)-c1ccc(-c3cccs3)cc1CC2 [Compound 4, 5,6-Dihydro-9-fluoro-3-(2-thienyl)benz[c]acridine-7-carboxylic acid] | 99.2 | 99.8 | 88.4 |  | > 100 | > 300 |
| O=C(O)c1c2c(nc3ccc(F)cc13)-c1ccc(-c3c(F)cccc3F)cc1CC2 [Compound 3, 3-(2,6-Difluorophenyl)-5,6-dihydro-9-fluorobenz[c]acridine-7-carboxylic acid] | 99.4 | 99.7 | 68.9 |  | > 100 | > 300 |
| O=C(O)c1c2c(nc3ccc(F)cc13)-c1ccc(-c3ccccc3)cc1CC2 [Compound A1, 5,6-dihydro-9-fluoro-3-phenylbenz[c]acridine-7-carboxylic acid, reference compound] | 45.9 | 78.6 |  |  |  |  |
| O=C(O)c1c2c(nc3ccc(F)cc13)-c1cc(F)c(-c3ccccc3F)cc1CCC2 [Compound 13, 2,10-Difluoro-6,7-dihydro-3-(2-fluorophenyl)-5H-benzo[6,7]cyclohepta[1,2-b]quinoline-8-carboxylic acid] | 95.7 | 95.2 | 82.4 |  |  |  |
